# Assay results published in patent US20260132165A1, “MODIFIED NUCLEOSIDE ANALOGUE AND USE THEREOF, AND NUCLEOSIDE ANALOGUE-CONTAINING DOUBLE-STRANDED OLIGONUCLEOTIDE AND USE THEREOF” (RIGERNA THERAPEUTICS (BEIJING) CO., LTD., priority 2023, published 2026).
# Strand notation (5' to 3'): a small letter for the sugar, then the base; units joined by * are phosphorothioate-linked, units joined directly phosphodiester-linked; [ ] holds rarer units or linkages, { } end groups; capitals alone tell only the bases. [Uhd] = commercial lipid-conjugated uridine analogue Uhd (C16), from Hongene, reference; {VP} = (thio)vinylphosphonate on the antisense 5' nucleotide, as listed; e = 2'-O-(2-methoxyethyl) (MOE); m = 2'-O-methyl; f = 2'-fluoro
# What was measured:
# [1] = tested on: target gene SOD1; assay: Test Example 9: inhibitory activity of lipid conjugated siRNA sequences on SOD1 in mouse muscle tissues; format: in vivo, C57BL/6j mice; conditions: D14; for Diaphragm % Mean value of inhibition rate / Heart % Mean value of inhibition rate / Left quadriceps muscle % Mean value of inhibition rate: tail vein injection 5 mg/kg; for Left quadriceps muscle % Mean value of inhibition rate: left hind leg quadriceps muscle
# Procedure: (§1) RNA extraction: the above tissue samples were taken out from the RNAlater, and smashed for 60 s in Tissuelyser type II full-automatic tissue homogenizer, and total RNAs of various tissue samples were extracted using the full-automatic nucleic acid extraction instrument and the nucleic acid extraction kit from Zhejiang Hanwei Science and Technology Co. Ltd. according to methods described in instructions.
# (§2) Reverse transcription reaction: 1 μg of the extracted total RNAs of the tissue samples were taken, and configured into 20 μL of reverse transcription system according to a method described in kit instructions by using a reverse transcription kit (Reverse Transcription System, A3500) from Promega Corporation and selecting Oligo (dT)15 reverse transcription primers, and the reverse transcription reaction was completed. After the reaction was ended, 80 μL of RNase-Free water was added into the reverse transcription system to provide cDNA solution for Real-time PCR detection.
# (§3) Real-time PCR detection: 20 μL of Real-time PCR reaction system per PCR detection well was configured according to a method described in kit instructions using SYBR™ Select Master Mix (Catalog number: 4472908) reagent from ABI company. Each detection system contained 5 μL of cDNA template obtained from the above reverse transcription reaction, 10 μL of SYBR™ Select Master Mix, 0.5 μL of 10 μM upstream primers, 0.5 μL of 10 μM downstream primers, and 4 μL of RNase-Free H2O. The configured reaction system was subjected to Real-time PCR amplification on ABI StepOnePlus PCR instrument by a three-step method, wherein an amplification procedure was pre-denaturation at 95° C. for 10 min, then denaturation at 95° C. for 30 s, annealing at 60° C. for 30 s, and extension at 72° C. for 30 s; and processes of denaturation, annealing, and extension were repeated for 40 cycles. Gene expression differences were calculated by the ΔΔCt method after completion of the procedure.
# (§4) In the real-time fluorescence quantitative PCR method, relative quantitative calculation of remaining expression level and inhibition rate of gene mRNA of interest in various test groups was performed by the ΔΔCt method, and the calculation method is as follows:
# The present test example evaluated, by an evaluation method for inhibitory activity on a target gene in mice, the inhibitory activity of siRNA sequence RZ899090 with the sense strand with the NM073 conjugation at Position 4, siRNA sequence RZ899091 with the sense strand with the NM074 conjugation at Position 4, siRNA sequence RZ899078 with the sense strand with the NM202 conjugation at Position 6 and siRNA reference sequence RZ899093 with the sense strand with the Uhd conjugation at Position 4, siRNA reference sequence RZ899076 with the sense strand with the NM200 conjugation at Position 4 on the target gene SOD1 of interest in muscle tissues in different parts of mice.
# 6-8 Week-old C57BL/6j mice were randomly grouped by body weight, 5 per group, 6 groups in total. Mice in each group were dosed with the above siRNA conjugates by tail vein injection, with an administration dose of 5 mg/kg per mouse, and an administration volume of 150 μL. PBS control group was administered with the same volume of siRNA conjugate-free PBS solution. The day of administration was recorded as D0, and 5 mice in each group were sacrificed on D14 after administration. Tissues such as left hind leg quadriceps muscle, diaphragm, and heart tissues were respectively taken and stored in the RNAlater. RNA extraction, reverse transcription, and real-time fluorescence quantitative detection were performed on various tissues according to the above method, and gene expression differences were calculated by the above ΔΔCt method.
# [2] = tested on: target gene SOD1; assay: Test Example 7: inhibitory activity of lipid conjugated siRNA sequences on SOD1 in mouse adipose and muscle tissues (tail vein injection); format: in vivo, C57BL/6j mice; conditions: for D 14 % Mean value of inhibition rate / D 28 % Mean value of inhibition rate / D 49 % Mean value of inhibition rate / Kidney D 14 % Mean value of inhibition rate / Kidney D 28 % Mean value of inhibition rate / Kidney D 49 % Mean value of inhibition rate / Liver D 14 % Mean value of inhibition rate / Liver D 28 % Mean value of inhibition rate / Liver D 49 % Mean value of inhibition rate: tail vein injection 5 mg/kg; for D 28 % Mean value of inhibition rate / Kidney D 28 % Mean value of inhibition rate / Liver D 28 % Mean value of inhibition rate: D28; for Kidney D 14 % Mean value of inhibition rate / Kidney D 28 % Mean value of inhibition rate / Kidney D 49 % Mean value of inhibition rate: mouse kidney; for Liver D 14 % Mean value of inhibition rate / Liver D 28 % Mean value of inhibition rate / Liver D 49 % Mean value of inhibition rate: mouse liver
# Procedure: as §1, §2, §3, §4
# The present test example evaluated, by an evaluation method for inhibitory activity on a target gene in mice, the inhibitory activity of siRNA sequence RZ899090 with the sense strand with the NM073 conjugation at Position 4, siRNA sequence RZ899091 with the sense strand with the NM074 conjugation at Position 4, siRNA sequence RZ899078 with the sense strand with the NM202 conjugation at Position 6 and siRNA reference sequence RZ899093 with the sense strand with the Uhd conjugation at Position 4, and siRNA reference sequence RZ899076 with the sense strand with the NM200 conjugation at Position 4 on the target gene SOD1 of interest in mice. The above conjugation vectors were different in that NM073 was C18 aliphatic chain, NM074 was C20 aliphatic chain, and NM0202 and NM0200 were C22 aliphatic chains.
# 6-8 Week-old C57BL/6j mice were randomly grouped by body weight, 15 per group, 6 groups in total. Mice in each group were dosed with the above siRNA conjugates by tail vein injection, with an administration dose of 5 mg/kg per mouse, and an administration volume of 150 μL. PBS control group was administered with the same volume of siRNA conjugate-free PBS solution. The day of administration was recorded as D0, and 5 mice in each group were sacrificed on D14, D28 and D49 after administration. Tissues such as paragonadal fat, left hind leg quadriceps muscle, heart, liver, and kidney were respectively taken and stored in the RNAlater. RNA extraction, reverse transcription, and real-time fluorescence quantitative detection were performed on various tissues according to the above method, and gene expression differences were calculated by the above ΔΔCt method.
# [3] = mouse adipose tissues (paragonadal fat), D14
# [4] = mouse adipose tissues (paragonadal fat)
# [5] = mouse adipose tissues (paragonadal fat), D49
# [6] = mouse skeletal muscle tissues (left hind leg quadriceps muscle), D14
# [7] = mouse skeletal muscle tissues (left hind leg quadriceps muscle)
# [8] = mouse skeletal muscle tissues (left hind leg quadriceps muscle), D49
Substance,Diaphragm % Mean value of inhibition rate [1],Heart % Mean value of inhibition rate [1],Left quadriceps muscle % Mean value of inhibition rate [1],"D 14 % Mean value of inhibition rate [2, 3]","D 28 % Mean value of inhibition rate [2, 4]","D 49 % Mean value of inhibition rate [2, 5]","D 14 % Mean value of inhibition rate ([2]; mouse heart tissues, D14)",D 28 % Mean value of inhibition rate ([2]; mouse heart tissues),"D 49 % Mean value of inhibition rate ([2]; mouse heart tissues, D49)",Kidney D 14 % Mean value of inhibition rate ([2]; D14),Kidney D 28 % Mean value of inhibition rate [2],Kidney D 49 % Mean value of inhibition rate ([2]; D49),Liver D 14 % Mean value of inhibition rate ([2]; D14),Liver D 28 % Mean value of inhibition rate [2],Liver D 49 % Mean value of inhibition rate ([2]; D49),"D 14 % Mean value of inhibition rate [2, 6]","D 28 % Mean value of inhibition rate [2, 7]","D 49 % Mean value of inhibition rate [2, 8]",also measured
RZ899091: siRNA sequence with the sense strand with the NM074 (C20) conjugation at Position 4; SEQ ID NO: 16 / 23 (sense UUUNAAUCCUCACUCUAAA; antisense UUUAGAGUGAGGAUUAAAAUG; NM074 (C20) conjugate at sense position 4; modified_base 1..2 OTHER; 2'-methoxy and 5'-thiophosphate modified nucleotides; modified_base 3 OTHER; 2'-methoxy modified nucleotide; modified_base 4 OTHER; n is the synthetic nucleotide analog NM074 as described in the disclosure.; modified_base 5..6 OTHER; 2'-methoxy modified nucleotides; modified_base 7..10 OTHER; 2'-fluoro modified nucleotides; modified_base 11..19 OTHER; 2'-methoxy modified ; modified_base 1 OTHER; 2'-methoxy and 5'-thiovinylphosphonate modified nucleotide; modified_base 2 OTHER; 2'-fluoro and 5'-thiophosphate modified …),39.22%,76.73%,33.02%,86.81%,86.36%,81.73%,87.44%,82.78%,81.89%,31.71%,3.50%,9.97%,49.04%,13.03%,7.59%,69.80%,72.24%,41.89%,"inhibitory activity compared with the NM200 conjugated reference sequence RZ899076 ([1]; heart tissues, tail vein 5 mg/kg): superior inhibitory activity; inhibitory action on the left quadriceps muscle and diaphragm ([1]; left quadriceps muscle and diaphragm, tail vein 5 mg/kg): certain inhibitory action; inhibitory action on liver and kidney tissues ([2]; liver and kidney (non-target tissues), tail vein 5 mg/kg, D28 and D49): no inhibitory action; inhibitory activity compared with the NM200 conjugated reference sequence RZ899076 ([2]; mouse adipose tissues, tail vein 5 mg/kg, D14): on par; gene inhibitory effect compared with RZ899076 ([2]; mouse adipose tissues, tail vein 5 mg/kg, D49): superior gene inhibitory effect; inhibitory activity compared with Uhd conjugated reference sequence RZ899093 and NM200 conjugated reference sequence RZ899076 ([2]; mouse heart tissues, tail vein 5 mg/kg, D14, D28 and D49): superior inhibitory activity; inhibitory activity in mouse skeletal muscle tissues ([2]; skeletal muscle, tail vein 5 mg/kg): certain inhibitory activity"
RZ899093: siRNA reference sequence with the sense strand with the Uhd (C16) conjugation at Position 4; SEQ ID NO: 13 / 23 (sense mU*mU*mU[Uhd]mAmAfUfCfCfUmCmAmCmUmCmUmAmAmA; antisense {VP}-mU*fU*mUmAmGfAmGmUmGmAmGfGmAfUeUfAmAmAmA*mU*mG) [reference compound],64.76%,51.52%,56.55%,88.95%,81.22%,81.75%,57.83%,60.42%,44.18%,42.87%,19.28%,18.90%,48.04%,13.41%,13.02%,68.42%,64.12%,44.88%,–
